The record followed here is ChEMBL document CHEMBL5518250, “Targeting KRAS Diversity: Covalent Modulation of G12X and Beyond in Cancer Therapy” (J Med Chem, 2024).

A short description of the experiment: Binding affinity to human recombinant His-tagged KRAS G12C/C118S mutant (1 to 169 residues) expressed in Escherichia coli assessed as inhibition constant by fluorescence based analysis.

Usually Ki stands for a dissociation constant, usually derived from enzyme kinetics or from competition with a known ligand. For the compound `C=CC(=O)N1CCN(c2nc(=O)n(-c3c(C)ccnc3C(C)C)c3nc(-c4c(O)cccc4F)c(F)cc23)[C@@H](C)C1` [SOTORASIB], the Ki turned out to be 86 µM.
